Results on 89 compounds are retold here after PubChem BioAssay AID2305 (GlaxoSmithKline (GSK), 2010).

Each structure is given as a SMILES string. “And” between values parts separate entries of the source, which are not always exact repeats. Identical values can stand only once.

This assay concerns P. falciparum 3D7 growth, pLDH absorbance. Kind of assay: P. falciparum 3D7 growth inhibition, dose response, strain 3D7 (AID 2305).

As a reminder, the IC50 is the point on the concentration scale where inhibition reaches its midpoint. Higher therefore signals weaker potency in that assay. `Nc1ncc(-c2ccsc2)c2ccc(-c3ccc4cn[nH]c4c3)cc12` returned an IC50 of 0.81 µM.
Compound `CCCCOC(=O)C1=C(C)NC2=C(C(=O)CC(c3ccc(OC)c(OC)c3)C2)C1c1ccc(O)cc1` (centres undefined) displayed an IC50 of 0.83 µM.
On to `Cc1cc(NC(=O)c2cccs2)ccc1OC1CCN(Cc2ccccc2)CC1`, for which the IC50 came to 0.87 µM.
The compound `Cc1ccc(NC(=O)c2ccc3ncccc3c2)cc1OC1CCN(Cc2ccc(F)cc2)CC1` showed an IC50 of 0.94 µM.
In the case of `CN(C)c1ccc(N=C2N=C(Nc3ccc(N(C)C)cc3)c3ccccc32)cc1` it was 0.85 µM.
For `CS(=O)(=O)CCNCc1cccc(-c2cc3c(Nc4ccc(OCc5ccccc5)cc4)ncnc3cn2)c1`, the IC50 worked out at 0.73 µM.
In the case of `CN(C)c1ccc(Br)c(Br)c1` it was 0.97 µM; in that of `Cc1cc(N(C)C2CCN(C)C2)nc(Nc2ccccc2Cl)n1` (centres undefined), 0.75 µM.
In the case of `c1ccc2sc(Sc3ncnc4sccc34)nc2c1` it was 0.73 µM; in that of `COc1cc(OC)c(NC(=O)C2c3ccccc3C(=O)N(CC(C)C)C2c2cccs2)cc1Cl` (centres undefined), 0.05 µM; in that of `CCC[C@@H](/C=N/N(C)C(=O)OC(C)(C)C)NC(=O)[C@H](CC(C)C)NC(=O)c1cc2cccc(OC)c2o1`, 1.08 µM.
As for `CCNC(=O)Nc1ccc(N(C)c2ccnc(Nc3ccc(CS(C)(=O)=O)cc3)n2)cc1`, the IC50 was found to be 0.09 µM.
In the case of `COc1c(Br)cc(Br)cc1-c1ccc(CN2CC3CCC2CC3)[nH]1` it was 0.69 µM.
As to `O=C(Nc1cccc(-c2nn3ccccc3c2-c2ccnc(Nc3cccc(N4CCCC4=O)c3)n2)c1)c1cc(F)ccc1F`, the IC50 was found to be 0.21 µM.
In the case of `Cc1ccc(NC(=O)c2cccc(CN3CCCN(CC4CCCCC4)CC3)c2)cc1F` it was 0.6 µM.
In the case of `CCOC(=O)c1c[nH]c2c(ccc3ccccc32)c1=O` it was 0.16 µM; in that of `CCc1cc2c(=O)c(-c3nc(C)cs3)c([C@H](N)Cc3ccc(O)cc3)oc2cc1O`, 0.9 µM.
In the case of `Oc1ccc(CCNc2nc(N/N=C/c3ccc(Cl)cc3)nc(N3CCNCC3)n2)cc1` it was 0.58 µM; in that of `Cc1cc(N(C)C)nc(Nc2ccc(NC(=O)c3ccc(Br)o3)cc2)n1`, 1.05 µM.
Compound `CN1CCC(C(=O)Nc2ccc(-c3ccc(-c4nc5ccc(C(F)(F)F)cc5[nH]4)s3)cc2)CC1` gave an IC50 of 0.99 µM.
Take `Fc1ccc2nc(-c3ccc(-c4ccc(CN5CCN(CCN6CCOCC6)CC5)cc4)s3)[nH]c2c1`: the IC50 is 0.15 µM.
In the case of `Cc1ccc(CC(C)NCC(O)c2cccc(C#N)c2)cc1` (centres undefined) it was 0.94 µM; in that of `NCC1CCCN1Cc1cccc(-c2ccc(-c3nc4ccccc4[nH]3)s2)c1` (centres undefined), 1.04 µM; in that of `C=CC[C@H](C[C@H](O)[C@H](Cc1ccccc1)NC(=O)c1ccc(-n2cccn2)cc1)C(=O)NC1CCCCC1`, 0.81 µM.
`CC1(C)N=C(N)N=C(N)N1OCCNCc1ccc(Cl)cc1`: the IC50 is 0.16 µM.
For `C=C(C)CSc1nc2c(c(=O)n1CCc1ccccc1)C1(CCCC1)Cc1ccccc1-2`, the IC50 turned out to be 0.61 µM.
In the case of `O=C(Nc1cccc(-c2nn3ncccc3c2-c2ccnc(Nc3cccnc3)n2)c1)c1c(F)cccc1F`, the IC50 was 0.53 µM.
In the case of `O=C(NCCN1CCCCC1)N1CCCN(c2ncnc3cc(-c4ccccc4)sc23)CC1` it was 0.23 µM; in that of `CC(C)c1ccc2c(c1)c(SC(C)(C)C)c(CC(C)(C)C#N)n2Cc1ccc(Cl)cc1`, 0.22 µM; in that of `O=S(=O)(Nc1cc2c(cc1O)CCNCC2)c1ccc(-c2ccc(Cl)cc2)cc1`, 0.98 µM.
In the case of `FC(F)(F)c1ccc2c(NN=Cc3cccc(Cl)c3)ccnc2c1` it was 0.84 µM; in that of `Cc1ccc(Nc2nc(N)c3ccccc3n2)cc1`, 0.84 µM; in that of `O=C(NCc1ccccc1)Nc1ccc(-c2ccc(-c3nc4ccc(C(F)(F)F)cc4[nH]3)cc2)cc1`, 0.67 µM.
In turn, `Cc1cc(NC(=O)Nc2ccc(C(C)(C)C)cc2)c2ccccc2n1` had an IC50 of 0.72 µM.
As for `CCOC(=O)c1ccc(NC(=O)Nc2ccc(Cn3ncc(N4CCCNCC4)c(Cl)c3=O)cc2)cc1`, the IC50 worked out at 0.44 µM.
In the case of `CS(=O)(=O)CCNCc1nc(-c2ccc3c(Nc4ccc(F)c(O)c4)ccnc3c2)cs1` it was 0.82 µM; in that of `COc1ccc(O)c(C(=O)c2cc(C#N)c(=O)n(-c3ccc(Oc4ccccc4)cc3)c2)c1`, 0.74 µM.
In the case of `CCc1ccc(S(=O)(=O)Nc2cccc(CCN3CCC(N4CCCCC4)CC3)c2)cc1` it was 0.9 µM; in that of `c1ccc2[nH]c(-c3ccc(-c4ccc(CN5CCCCC5)cc4)s3)nc2c1`, 0.74 µM; in that of `CCN(CC)c1nc(-c2ccccc2)cc(-c2ccccc2)c1C#N`, 0.45 µM.
In turn, `COc1ccc2ncc(F)c(CCN3CCC(CNCc4cccc5c4OCO5)CC3)c2n1` displayed an IC50 of 0.93 µM.
In the case of `CC(=NNC(=S)NC(C)(C)C)c1ccccn1` it was 0.16 µM; in that of `COc1ccc(-c2cccc(NC(=O)c3cccs3)c2)cc1CN1CCCN(C)CC1`, 0.7 µM.
In the case of `CCN(Cc1ccccc1)CC(O)c1ccc(Cl)c(Cl)c1` (centres undefined) it was 0.18 µM; in that of `N#Cc1ccc2[nH]cc(C(=O)CCCCCN(Cc3ccccc3)Cc3ccccc3)c2c1`, 0.79 µM; in that of `COC(=O)c1cc(C(=O)CN(Cc2ccccc2)C(C)C)ccc1O`, 0.18 µM.
In the case of `Cc1[nH]c(C)c(-c2ccc(-c3cccc(Cl)c3)nc2)c(=O)c1Cl` it was 0.19 µM; in that of `COc1ccc2ncc(F)c(CCN3C[C@H](CNCc4nc5c(cc4Cl)OCC(=O)N5)[C@H](O)C3)c2n1`, 0.95 µM and 1.28 µM and 0.83 µM; in that of `O=C(Cc1ccc(-n2cnnn2)cc1)N(Cc1cncn1Cc1cccc(C(F)(F)F)c1)CC1CC1`, 0.96 µM.
The compound `O=C(NCCCc1ccccc1)c1ccc(O)c(-c2cc(Cl)cc(Cl)c2)c1` displayed an IC50 of 0.57 µM.
In the case of `CCNC(=O)N1CCc2ccc(Oc3nc(NCc4ccccc4OC)ncc3C)cc2CC1` it was 1.07 µM.
For the compound `CNCCCn1c(N(C)C)nc2cc(-n3cnc4cc(-c5ccc(Cl)cc5)sc4c3=O)ccc21`, the IC50 was 1.14 µM.
In turn, `COc1cc2nc(N3CCC(CNCc4ccc(-c5ccc(C(F)(F)F)cc5)cc4)CC3)nc(N)c2cc1OC` had an IC50 of 0.09 µM.
The compound `CCc1cc2c(cc1CC)CC(NC[C@@H](O)c1ccc(O)c3[nH]c(=O)ccc13)C2` registered a 50% inhibitory concentration (IC50) of 1.12 µM.
In the case of `O=C(CN1CCC2(CCC1=O)CC(=O)c1ccccc1O2)NCCN1CCOCC1` (centres undefined) it was 0.22 µM; in that of `Cc1cc(=O)c(-c2cccc(Oc3ccc(Cl)cc3)c2)c(C)[nH]1`, 0.74 µM; in that of `Nc1c(Cl)cc(C(O)CNCCCCCCOCCc2ccc(O)cc2)cc1Cl` (centres undefined), 0.73 µM.
As for `Cc1cccc2[nH]c(-c3ccc(-c4cccc(CN5CCC(C(N)=O)CC5)c4)cc3)nc12`, the 50% inhibitory concentration (IC50) came to 1.77 µM.
In the case of `COc1cc(Cc2cnc(N)nc2N)c2c(c1OC)OC(C)(C)C=C2` it was 1.19 µM.
In the case of `Cc1cc(-c2ccc(CNCc3ccc(F)cc3)cc2)ccc1S(=O)(=O)NCCN1CCCC1` it was 0.72 µM; in that of `COc1cc(-c2nc(C(C)(C)CN)[nH]c2-c2ccncc2)ccc1Br`, 0.77 µM.
In the case of `CCCc1nc2c(N3CC(NC(=O)/C=C/c4ccccc4)C3)cccc2n1C1CC1` it was 0.55 µM.
The compound `Cc1cc(N(C)CCCN(C)C)nc(Nc2ccc(Cl)cc2)n1` returned an IC50 of 1.02 µM.
For `CN1CCN(CCCNCc2cccc(Nc3nccc(Nc4ccc(Oc5ccccc5)cc4)n3)c2)CC1`, the half-maximal inhibitory concentration (IC50) stood at 0.76 µM.
In the case of `CC(C)(C)OC(=O)NCc1ccc(Nc2nnc(-c3cccc(OCC(=O)NCc4cc(C(F)(F)F)cc(C(F)(F)F)c4)c3)o2)cc1` it was 0.83 µM.
In the case of `CCCCCC1c2[nH]c3ccccc3c2CCN1C(=O)OCc1ccccc1` (centres undefined) it was 0.39 µM; in that of `CCCc1cn2c3c(cc(C(=O)N[C@@H](Cc4ccccc4)[C@H](O)CNC4CCOCC4)cc13)N(C)S(=O)(=O)CC2`, 0.05 µM.
On to `CC1=C(C(=O)NC2CCC(CN3CCC(c4c[nH]c5ccccc45)CC3)CC2)Cc2ccccc21` (centres undefined), for which the 50% inhibitory concentration (IC50) is 0.83 µM and 1 µM.
On to `CCCCN(Cc1cnccc1-c1ccc(Br)cc1)c1ccc(C(O)(C(F)(F)F)C(F)(F)F)cc1`, for which the half-maximal inhibitory concentration (IC50) was 1.06 µM.
For the compound `O=C1COc2ccc(CNC3CCC(O)(CCc4ccnc5cc6c(cc45)OCCO6)CC3)nc2N1` (centres undefined), the half-inhibitory concentration (IC50) is 0.93 µM.
The compound `N#Cc1ccc2c(c1)CCN(CCC1CCC(NC(=O)/C=C/c3ccc(Cl)c(Cl)c3)CC1)CC2` (centres undefined) returned a 50% inhibitory concentration (IC50) of 0.42 µM.
The compound `Cc1cnc(C(=O)Nc2ccc(-c3cccc(-c4nc5ccccc5[nH]4)c3)cc2)cn1` came in with a 50% inhibitory concentration (IC50) of 0.83 µM.
For `O=C(c1ccco1)c1cn(CCOc2ccccc2)c2ccccc12`, the concentration for half-maximal inhibition (IC50) was determined as 0.75 µM.
In the case of `CC(C)COc1ccc(Cl)cc1Cc1ccc(-c2nc3c(cnc4ccccc43)[nH]2)o1` it was 1.26 µM; in that of `CC(C)=C(C(=O)OCc1ccccc1)N1C(=O)[C@@H](NC(c2ccccc2)(c2ccccc2)c2ccccc2)[C@H]1[S@@](=O)CC(=O)OC(C)(C)C`, 1.02 µM.
Consider `CCC(C)c1cccc(C(C)CC)c1OCCCON1C(N)=NC(N)=NC1(C)C` (centres undefined), for which the concentration for half-maximal inhibition (IC50) is 0.02 µM.
For the compound `Oc1ccc(CCNc2nc(NCCCOc3ccccc3-c3ccc(F)cc3)nc(N3CCNCC3)n2)cc1`, the half-inhibitory concentration (IC50) amounted to 1.08 µM.
In turn, `O=C(Cc1ccc(Cl)cc1)NC1CCN(c2ccnc3cc(Cl)ccc23)C1` (centres undefined) displayed a concentration for half-maximal inhibition (IC50) of 0.23 µM.
In the case of `O=C(NCc1ccccc1F)c1ccc(N2CCC(NCc3cccc(-n4cccn4)c3)CC2)cc1` it was 1.73 µM; in that of `COc1ccc(CCNCCCCCCNCCc2ccccc2Cl)cc1OC`, 0.66 µM; in that of `COc1cc(CNC[C@@H](O)[C@H](Cc2ccccc2)NC(=O)c2cc(C3CCCC3)cc(N3CCCS3(=O)=O)c2)cc(OC)c1`, 1.24 µM.
In the case of `CC1CN(S(=O)(=O)c2ccc(NC(=O)c3cc(-c4ccccc4O)n[nH]3)cc2)CC(C)O1` (centres undefined) it was 0.83 µM; in that of `CCc1ccc(C(=O)Nc2cccc(CN3CCCN(Cc4ccc(O)cc4)CC3)c2)cc1`, 1.03 µM.
In the case of `O=C(Nc1cccc(C(F)(F)F)c1)NC1CCN(c2ccnc3cc(Cl)ccc23)CC1` it was 0.29 µM.
`O=C(Cc1ccc(Cl)cc1)Nc1cc(Cl)ccc1Cn1cnc(N2CCNCC2)cc1=O` came in with an IC50 of 1 µM.
In the case of `COc1ccc2c(c1)[nH]c1c(/C=C/c3ccc([N+](=O)[O-])cc3)nccc12` it was 0.86 µM; in that of `COc1ccc2nccc(NN=Cc3ccccc3Cl)c2c1`, 0.66 µM; in that of `CC(Cc1ccc(C(C)(C)C)cc1)NCC(O)c1ccccc1` (centres undefined), 1.81 µM.
Compound `CCCc1cc(C)ccc1OCCCON1C(NC(=O)OCC)=NC(NC(=O)OCC)=NC1(C)C` displayed an IC50 of 0.04 µM.
